Test results reported in ChEMBL document CHEMBL1153832, “Identification and characterization of UK-201844, a novel inhibitor that interferes with human immunodeficiency virus type 1 gp160 processing” (Antimicrob Agents Chemother, 2007).

What was measured:
[1] = Therapeutic index, ratio of CC50 for human MT2 cells to EC50 for HIV1 NL4-3; format: cell-based; settings: read-out: TI
[2] = tested on: Human immunodeficiency virus 1; experiment: Ratio of EC50 for recombinant HIV1 NL4-3/3BNt chimeric virus to EC50 for parental HIV1 NL4-3 virus; format: functional
[3] = tested on: Human immunodeficiency virus 1; experiment: Antiviral activity against recombinant HIV1 NL4-3 bearing envelope with D474N substitution infected in human MT2 cells by virus production assay; format: functional, organism-based
[4] = tested on: Human immunodeficiency virus 1; experiment: Ratio of EC50 for recombinant HIV1 NL4-3 bearing envelope with S162N, N302Y, G354E, V372E, D474N substitutions to EC50 for parental HIV1 NL4-3; format: functional
[5] = tested on: Human immunodeficiency virus 1; experiment: Ratio of EC50 for recombinant HIV1 NL4-3 bearing envelope with V372E substitution to EC50 for parental HIV1 NL4-3; format: functional

NC(=O)C(c1ccccc1)(c1ccccc1)[C@H]1CCCN(CCc2ccc3c(c2)CCO3)C1
selectivity ratio [1]: 41 | fold change (FC) [2]: 1 | EC50 [3]: 6.1 µM | fold change (FC) [4]: >31 | fold change (FC) [5]: 0.9
